Counter-ions that a name gives are not always drawn. Like-named read-outs stand apart in the source and are kept apart here.

Assay [1] deals with T1, human M2 receptors (Homo sapiens, UniProt P08172).
T1 construct: purchased Receptor Biology; host or cells: CHO-K1 cells transfected with the human receptor (membranes)
T1 sequence (P08172 1-466): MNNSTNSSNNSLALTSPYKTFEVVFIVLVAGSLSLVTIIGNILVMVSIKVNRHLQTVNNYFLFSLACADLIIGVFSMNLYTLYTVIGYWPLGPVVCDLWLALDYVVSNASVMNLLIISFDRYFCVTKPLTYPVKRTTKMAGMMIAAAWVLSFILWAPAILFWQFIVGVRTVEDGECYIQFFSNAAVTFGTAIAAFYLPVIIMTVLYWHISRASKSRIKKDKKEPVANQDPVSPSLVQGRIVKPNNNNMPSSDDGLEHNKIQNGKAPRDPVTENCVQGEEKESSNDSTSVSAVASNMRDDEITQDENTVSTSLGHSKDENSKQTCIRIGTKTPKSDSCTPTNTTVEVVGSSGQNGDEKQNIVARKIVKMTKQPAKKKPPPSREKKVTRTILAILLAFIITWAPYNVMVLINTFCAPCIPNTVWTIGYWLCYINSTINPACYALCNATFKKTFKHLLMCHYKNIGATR
Kind of assay: Binding test to cloned human M2 muscarinic receptor ([3H]-NMS displacement, CHO-K1 membranes), reported as M2/M3 ratio. Particulars: value greater than 1 indicates selectivity for the M3 receptor. The procedure: (§1) Membranes from CHO—K1 cells transfected with human M2 or M3 receptors (Receptor Biology) were used. The summarised experimental procedure for both receptors was the following: membranes (15–20 μg) were incubated with [^3H]-NMS (0.3–0.5 nM) for 60 min at 25° C., in presence or absence of the antagonists. Incubation was carried out in 96 wells polystyrene microplates in a total incubation volume of 0.2 mL of PBS pH 7.4. Non specific binding was determined in parallel assays in presence of atropine (5 μM). Samples were filtered through type GF/C glass fibre, preincubated with PEI 0.3%. Filters were washed 3–4 times with 50 mM Tris-HCl, 0.9% NaCl, pH 7.4 at 4° C., and dried at 50° C. for 45 min. Filter bound radioactivity was quantified by liquid scintillation counting.
(§2) For the calculation of the inhibition constant (Ki), displacement curves were analysed by non-linear regression (GraphPad Prism). Dissociation constant (KD) of [^3H]-NMS for each receptor was obtained through the saturation curves obtained in the same conditions as the experiments carried out with the antagonists.

For assay [2], the target named is T2, human M3 receptors (Homo sapiens, UniProt P20309).
T2 construct: purchased Receptor Biology; host or cells: CHO-K1 cells transfected with the human receptor (membranes)
Put plainly: Binding test to cloned human M3 muscarinic receptor ([3H]-NMS displacement, CHO-K1 membranes). The protocol: as §1, §2

Where [3] appears, read: membranes of CHO-K1 cells transfected with human M3, [3H]-NMS, mean of two independent experiments in duplicate, read-out: M3 (human M3 antagonist activity, binding affinity constant Ki).

T2 sequence (P20309 whole entry): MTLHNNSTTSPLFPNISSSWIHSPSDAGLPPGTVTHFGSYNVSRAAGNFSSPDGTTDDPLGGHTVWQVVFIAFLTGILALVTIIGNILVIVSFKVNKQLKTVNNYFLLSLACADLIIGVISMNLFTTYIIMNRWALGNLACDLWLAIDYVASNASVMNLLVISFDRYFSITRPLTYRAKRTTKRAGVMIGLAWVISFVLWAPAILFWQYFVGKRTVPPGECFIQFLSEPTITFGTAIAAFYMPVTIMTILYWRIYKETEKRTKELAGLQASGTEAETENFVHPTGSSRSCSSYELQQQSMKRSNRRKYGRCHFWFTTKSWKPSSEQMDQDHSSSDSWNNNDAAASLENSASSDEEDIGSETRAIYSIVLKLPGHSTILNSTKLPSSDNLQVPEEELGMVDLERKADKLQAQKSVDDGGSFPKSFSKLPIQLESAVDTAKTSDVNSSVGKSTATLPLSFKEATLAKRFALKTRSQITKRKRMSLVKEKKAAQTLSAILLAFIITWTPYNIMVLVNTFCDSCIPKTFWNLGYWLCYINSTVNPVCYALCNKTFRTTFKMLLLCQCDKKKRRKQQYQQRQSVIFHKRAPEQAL

Regarding `O=C(O[C@H]1CN2CCC1CC2)N(Cc1ccccc1)c1ccccc1` [Example 2, (R)-3-quinuclidyl N-benzyl-N-phenylcarbamate, hydrochloride], in assay [1], the “M2/M3 (ratio between M2 and M3 receptor affinities)” value is given as 5. Further, in assay [2], the Ki amounted to 0.31 nM.

Consider `O=C(O[C@H]1CN2CCC1CC2)N(Cc1ccccc1)c1c(F)cccc1F` [Example 8], for which, in assay [1], the “M2/M3 (ratio between M2 and M3 receptor affinities)” value is on record as 11. Moreover, in assay [2] (setting [3]), the Ki is 0.2 nM.

For the compound `O=C(OC1CN2CCC1CC2)N(Cc1ccccc1)c1ccc(F)c(F)c1` (stereo not drawn) [Example 9], the “M2/M3 (ratio between M2 and M3 receptor affinities)” value in assay [1] worked out at 9. Also, in assay [2] (setting [3]), the Ki is 19.6 nM.

For the compound `O=C(OC1CN2CCC1CC2)N(CC1CC2C=CC1C2)c1ccccc1` (stereo not drawn) [Example 63], the “M2/M3 (ratio between M2 and M3 receptor affinities)” value in assay [1] stood at 64. In assay [2] (setting [3]), the Ki is 0.06 nM.

On to `O=C(OC1CN2CCC1CC2)N(Cc1ccccc1)c1cccc(Br)c1` (stereo not drawn) [Example 7], for which the “M2/M3 (ratio between M2 and M3 receptor affinities)” value in assay [1] worked out at 19. In assay [2] (setting [3]), the Ki is 2.05 nM.

In the case of `O=C(OC1CN2CCC1CC2)N(Cc1cc(F)c(F)c(F)c1)c1ccc(F)cc1` (stereo not drawn) [Example 37], the “M2/M3 (ratio between M2 and M3 receptor affinities)” value in assay [1] was determined as 134. In assay [2] (setting [3]), the Ki is 0.66 nM.

Turning to `N#Cc1ccc(CN(C(=O)OC2CN3CCC2CC3)c2ccccc2)cc1` (stereo not drawn) [Example 43], the “M2/M3 (ratio between M2 and M3 receptor affinities)” value in assay [1] stood at 31. The Ki in assay [2] (setting [3]) came to 0.9 nM.

Take `O=C(OC1CN2CCC1CC2)N(CC1CCCCC1)c1ccccc1F` (stereo not drawn) [Example 57]: the “M2/M3 (ratio between M2 and M3 receptor affinities)” value in assay [1] is on record as 300. In addition, the Ki in assay [2] (setting [3]) is 0.025 nM.

For `Cc1cccc(N(Cc2ccccc2C)C(=O)OC2CN3CCC2CC3)c1` (stereo not drawn) [Example 38], in assay [1], the “M2/M3 (ratio between M2 and M3 receptor affinities)” value amounted to 40. Also, the Ki in assay [2] (setting [3]) worked out at 0.23 nM.

With `CCc1ccc(CN(C(=O)OC2CN3CCC2CC3)c2ccccc2)cc1` (stereo not drawn) [Example 40], the “M2/M3 (ratio between M2 and M3 receptor affinities)” value in assay [1] was found to be 92. In assay [2] (setting [3]), the Ki turned out to be 0.066 nM.

As for `Cc1cccc(N(Cc2ccc(F)cc2)C(=O)OC2C[N+]3(C)CCC2CC3)c1.[I-]` (stereo not drawn) [Example 67], the “M2/M3 (ratio between M2 and M3 receptor affinities)” value in assay [1] is reported as 19. In addition, in assay [2] (setting [3]), the Ki was determined as 3.8 nM.

For the compound `O=C(OC1CN2CCC1CC2)N(Cc1ccccc1)c1ccccc1O` (stereo not drawn) [Example 14], the “M2/M3 (ratio between M2 and M3 receptor affinities)” value in assay [1] is reported as 21. Besides, the inhibitory constant (Ki) in assay [2] (setting [3]) was 0.31 nM.

As for `O=C(OC1CN2CCC1CC2)N(Cc1ccccc1)c1ccccc1` (stereo not drawn) [Example 1, 3-quinuclidyl N-benzyl-N-phenylcarbamate, hydrochloride], the “M2/M3 (ratio between M2 and M3 receptor affinities)” value in assay [1] is 10. Also, in assay [2], the Ki stood at 0.45 nM.

Regarding `O=C(OC1CN2CCC1CC2)N(Cc1ccc(F)c(F)c1)c1ccccc1` (stereo not drawn) [Example 26], the “M2/M3 (ratio between M2 and M3 receptor affinities)” value in assay [1] worked out at 50. Besides, in assay [2] (setting [3]), the inhibition constant (Ki) came to 0.1 nM.

On to `O=C(OC1CN2CCC1CC2)N(Cc1ccc(Cl)c(F)c1)c1ccccc1F` (stereo not drawn) [Example 27], for which the “M2/M3 (ratio between M2 and M3 receptor affinities)” value in assay [1] was 92. For the same compound, the Ki in assay [2] (setting [3]) amounted to 0.37 nM.

On to `O=C(OC1CN2CCC1CC2)N(Cc1ccccc1Br)c1ccccc1` (stereo not drawn) [Example 16], for which, in assay [1], the “M2/M3 (ratio between M2 and M3 receptor affinities)” value was found to be 13. Moreover, the inhibitory constant (Ki) in assay [2] (setting [3]) stood at 4.23 nM.

In the case of `Cc1cccc(N(Cc2ccc(C)c(F)c2)C(=O)OC2CN3CCC2CC3)c1` (stereo not drawn) [Example 31], the “M2/M3 (ratio between M2 and M3 receptor affinities)” value in assay [1] came to 52. For the same compound, the Ki in assay [2] (setting [3]) was 0.32 nM.

Turning to `O=C(OC1CN2CCC1CC2)N(Cc1ccc(C(F)(F)F)cc1)c1ccccc1` (stereo not drawn) [Example 39], the “M2/M3 (ratio between M2 and M3 receptor affinities)” value in assay [1] is given as 84. Also, in assay [2] (setting [3]), the Ki was 0.32 nM.

As to `O=C(OC1CN2CCC1CC2)N(Cc1cccc(OCc2ccccc2)c1)c1cccc(Cl)c1` (stereo not drawn) [Example 48], the “M2/M3 (ratio between M2 and M3 receptor affinities)” value in assay [1] worked out at 24. Besides, the Ki in assay [2] (setting [3]) came out at 0.43 nM.

Take `C[N+]12CCC(CC1)C(OC(=O)N(Cc1ccc(F)cc1)c1ccccc1)C2.[I-]` (stereo not drawn) [Example 64]: the “M2/M3 (ratio between M2 and M3 receptor affinities)” value in assay [1] came to 30. Also, in assay [2] (setting [3]), the Ki came out at 3.6 nM.

In the case of `O=C(OC1CN2CCC1CC2)N(Cc1cccc(F)c1F)c1cccc(Cl)c1` (stereo not drawn) [Example 20], the “M2/M3 (ratio between M2 and M3 receptor affinities)” value in assay [1] is listed as 149. Further, in assay [2] (setting [3]), the inhibition constant Ki is 0.33 nM.

With `Cc1ccccc1N(Cc1ccccc1)C(=O)OC1C[N+]2(C)CCC1CC2.[I-]` (stereo not drawn) [Example 65], in assay [1], the “M2/M3 (ratio between M2 and M3 receptor affinities)” value was 13. The inhibition constant (Ki) in assay [2] (setting [3]) was 14.3 nM.

Turning to `O=C(OC1CN2CCC1CC2)N(Cc1ccccc1)c1ccccc1F` (stereo not drawn) [Example 5], in assay [1], the “M2/M3 (ratio between M2 and M3 receptor affinities)” value was found to be 47. The inhibition constant (Ki) in assay [2] (setting [3]) is 0.047 nM.

Take `Cc1cccc(N(Cc2ccc(F)cc2F)C(=O)OC2CN3CCC2CC3)c1` (stereo not drawn) [Example 22]: the “M2/M3 (ratio between M2 and M3 receptor affinities)” value in assay [1] is recorded as 21. For the same compound, the Ki in assay [2] (setting [3]) was 0.51 nM.

Take `CC(C)(C)c1ccc(CN(C(=O)OC2CN3CCC2CC3)c2ccccc2)cc1` (stereo not drawn) [Example 41]: in assay [1], the “M2/M3 (ratio between M2 and M3 receptor affinities)” value amounted to 271. The Ki in assay [2] (setting [3]) was determined as 0.11 nM.

Turning to `O=C(OC1CN2CCC1CC2)N(Cc1ccccc1O)c1ccccc1F` (stereo not drawn) [Example 45], in assay [1], the “M2/M3 (ratio between M2 and M3 receptor affinities)” value turned out to be 37. In addition, the Ki in assay [2] (setting [3]) is 0.18 nM.

`COc1ccc(CN(C(=O)OC2CN3CCC2CC3)c2ccccc2F)cc1F` (stereo not drawn) [Example 32]: in assay [1], the “M2/M3 (ratio between M2 and M3 receptor affinities)” value is on record as 19. In addition, the Ki in assay [2] (setting [3]) stood at 3.3 nM.

In the case of `Cc1ccccc1N(Cc1ccc(CO)cc1)C(=O)OC1CN2CCC1CC2` (stereo not drawn) [Example 42], the “M2/M3 (ratio between M2 and M3 receptor affinities)” value in assay [1] is 38. Besides, the inhibitory constant (Ki) in assay [2] (setting [3]) amounted to 1.17 nM.

Turning to `O=C(OC1CN2CCC1CC2)N(CC1=CCCCC1)c1ccccc1F` (stereo not drawn) [Example 60], in assay [1], the “M2/M3 (ratio between M2 and M3 receptor affinities)” value is on record as 48. In addition, in assay [2] (setting [3]), the Ki amounted to 0.02 nM.

Consider `C[N+]12CCC(CC1)C(OC(=O)N(Cc1ccccc1)c1ccccc1)C2.[I-]` [Example 3, (R)-3-N-benzyl-N-phenylcarbamoyloxy)-1-methylquinuclidinium iodide], for which, in assay [1], the “M2/M3 (ratio between M2 and M3 receptor affinities)” value is listed as 7. In addition, the Ki in assay [2] (setting [3]) was 2.6 nM.

For `O=C(OC1CN2CCC1CC2)N(CC1CC=CCC1)c1cccc(Cl)c1` (stereo not drawn) [Example 61], the “M2/M3 (ratio between M2 and M3 receptor affinities)” value in assay [1] is 74. For the same compound, in assay [2] (setting [3]), the Ki worked out at 0.35 nM.

`CC(C)Oc1ccc(CN(C(=O)OC2CN3CCC2CC3)c2ccccc2)cc1` (stereo not drawn) [Example 50]: in assay [1], the “M2/M3 (ratio between M2 and M3 receptor affinities)” value amounted to 26. The Ki in assay [2] (setting [3]) was determined as 0.84 nM.

Consider `O=C(OC1CN2CCC1CC2)N(Cc1ccc(F)c(F)c1F)c1cccc(Cl)c1` (stereo not drawn) [Example 33], for which the “M2/M3 (ratio between M2 and M3 receptor affinities)” value in assay [1] is 142. In assay [2] (setting [3]), the Ki was determined as 0.4 nM.

Consider `O=C(OC1CN2CCC1CC2)N(Cc1ccc(Cl)cc1Cl)c1ccc(F)cc1F` (stereo not drawn) [Example 21], for which, in assay [1], the “M2/M3 (ratio between M2 and M3 receptor affinities)” value is reported as 5. The Ki in assay [2] (setting [3]) was determined as 105 nM.

With `O=C(OC1CN2CCC1CC2)N(Cc1cc(F)ccc1F)c1ccccc1Cl` (stereo not drawn) [Example 24], the “M2/M3 (ratio between M2 and M3 receptor affinities)” value in assay [1] amounted to 33. The inhibitory constant (Ki) in assay [2] (setting [3]) was found to be 0.48 nM.

In the case of `Cc1cccc(N(CC2CCCC2)C(=O)OC2CN3CCC2CC3)c1` (stereo not drawn) [Example 56], the “M2/M3 (ratio between M2 and M3 receptor affinities)” value in assay [1] was 37. Further, the Ki in assay [2] (setting [3]) was 0.75 nM.

Regarding `Cc1ccc(F)c(N(Cc2ccccc2F)C(=O)OC2CN3CCC2CC3)c1` (stereo not drawn) [Example 15], the “M2/M3 (ratio between M2 and M3 receptor affinities)” value in assay [1] is given as 21. The Ki in assay [2] (setting [3]) was 0.53 nM.

As to `O=C(OC1CN2CCC1CC2)N(Cc1ccc(Cl)c(Cl)c1)c1ccccc1` (stereo not drawn) [Example 29], the “M2/M3 (ratio between M2 and M3 receptor affinities)” value in assay [1] amounted to 50. Besides, the Ki in assay [2] (setting [3]) came out at 1.4 nM.

Consider `O=C(OC1CN2CCC1CC2)N(Cc1ccc(F)cc1)c1cccc(F)c1F` (stereo not drawn) [Example 18], for which the “M2/M3 (ratio between M2 and M3 receptor affinities)” value in assay [1] came out at 154. Further, the Ki in assay [2] (setting [3]) stood at 0.92 nM.

Source of the values: patent US7115629B2, “Carbamates derived from arylalkylamines” (Laboratorios S.A.L.V.A.T., S.A., priority 2000, dated 2006).
